Experimental data as given in patent US20230398130A1, “METHODS AND COMPOSITIONS FOR DIFFERENTIATING STEM CELLS” (Massachusetts Institute of Technology, priority 2020, published 2023).
Entries after “also recorded” stand apart in the source; their conditions may differ.

How the values were obtained:
Paneth cells = experiment: In vivo oral gavage of KPT-330 every other day for two weeks: histological counting of Paneth, Olfm4+ stem and PAS+ goblet cells in small intestine; design: species or system C57BL/6 wild-type mice
Experimental: Applicants tracked animal weight every other day, and at day 14 collected the proximal and distal thirds of the small intestine for histological quantification of Paneth, stem, and goblet populations (FIG. 26A). […] Samples were prepared for histology by the 'swiss-roll' technique, and following staining, were blinded and randomized before manual counting of well-preserved features. […] Animal study. 8-10 weeks old wild type C57BL/6NCrl male mice (#027) were purchased from Charles River. […] All animal studies are approved by the Committee on Animal Care (CAC) at Massachusetts Institute of Technology. Histology. The small intestine (SI) was collected from mice and divided into three parts. Only proximal and distal SI were kept in PBS, and medial SI was discarded. Each SI was opened longitudinally and washed in PBS. […] Fixed tissues were embedded in paraffin, and […] sections were mounted on slides. […] For McManus Periodic Acid Schiff (PAS) reaction, slides were deparaffinized, oxidized in periodic acid, and stained with Schiff reagent (Poly Scientific, s272) followed by counterstaining with Harris Hematoxylin. Slides were scanned by Aperio Slide Scanner (Leica) and cells were counted on Aperio eSlide Manager. Slides were randomized before counting, and all cell types were counted in all well-preserved crypts along the longitudinal crypt-villus axis. […] Because Paneth cell number and quality is known to physiologically change along the length of the small intestine, and diseases associated with Paneth cells most frequently present distally^56, Applicants sought to profile how XPO1 inhibition may differentially affect proximal and distal small intestine. Applicants tracked animal weight every other day and collected the proximal and distal thirds of the small intestine at day 14 for histological quantification of Paneth, stem, and goblet populations (FIG. 61A). […] Paneth cells were counted within well-preserved crypts-with at least 30 crypts quantified per animal (representative images FIG. 62C) and the counts were averaged. […] Animal study. 8-10 weeks old wild type C57BL/6NCrl male mice (#027) were purchased from Charles River. […] All animal studies are approved by the Committee on Animal Care (CAC) at Massachusetts Institute of Technology. Histology. The small intestine (SI) was collected from mice and divided into three parts. Only proximal and distal SI were kept in PBS, and medial SI was discarded. Each SI was opened longitudinally and washed in PBS. […] Fixed tissues were embedded in paraffin, and […] sections were mounted on slides. […] For McManus Periodic Acid Schiff (PAS) reaction, slides were deparaffinized, oxidized in periodic acid, and stained with Schiff reagent (Poly Scientific, s272) followed by counterstaining with Harris Hematoxylin. Slides were scanned by Aperio Slide Scanner (Leica) and cells were counted on Aperio eSlide Manager. Slides were blinded and randomized before counting, and all cell types were counted in all well-preserved crypts along the longitudinal crypt-villus axis (Paneth cell: >30 crypts, Olfm4+ cell: ≥17 crypts, Goblet cell: >15 villi, per sample). For the Goblet cell images, the samples that include less than 15 well-preserved crypt-villus axes were excluded, which was predetermined.

ISC-enriched organoids = experiment: Lysozyme secretion assay, 3-D organoids in ENR, normalized to ATP; format: cell-based, murine; conditions: 6 hit compounds, 6 days ENR, 10 μM Cch 3 h
Experimental: Lysozyme assay (3D culture). ISC-enriched organoids cultured in 3D Matrigel with ENRCV media were passaged to 48-well plate in 3D Matrigel with ENRCV. At day zero, media were replaced to ENR or ENRCD with or without indicated compounds, and media were replaced every other day. At day six, cells were washed twice with basal media and treated with carbamylcholine chloride (Sigma, C4382) for 3 hours. Media were collected and lysozyme activity was measured by EnzChek Lysozyme Assay Kit (ThermoFisher, E22013).
Lysozyme secretion assay. ISC-enriched organoids in 3D Matrigel culture were passaged to a 48- or 96-well plate and cultured with ENR or ENR+CD media containing DMSO or each drug for 6 days. DMSO- or drug-containing media were changed every other day. […] The fluorescence was measured using excitation/emission of 485/530 nm. […] The solution was replaced to a 96-well white microplate, and luminescent signals were measured by a microplate reader (infinite M200, Tecan). […] For both assays, a polynomial cubic curve was fitted to a set of standard data, and each sample value was calculated on the Microsoft Excel.
Lysozyme secretion assay. […] The fluorescence was measured using excitation/emission of 485/530 nm. […] The solution was replaced to a 96-well white microplate, and luminescent signals were measured by a microplate reader (infinite M200, Tecan). […]

O=C(/C=C\n1cnc(-c2cc(C(F)(F)F)cc(C(F)(F)F)c2)n1)NNc1cnccn1 [KPT-330]
Olfm4+ stem cells per crypt (Paneth cells; 0.01 mg/kg, distal SI, day 14): significant increase in Olfm4+ stem cells
fraction of crypts with more Paneth cells than the vehicle 90th percentile cutoff (5 per crypt) (Paneth cells; 0.01 mg/kg, distal small intestine): 27.9%
Paneth cell abundance per crypt (Paneth cells; 0.01 mg/kg, distal small intestine, day 14): significant increases in Paneth cell abundance
Paneth cell abundance per crypt (Paneth cells; 0.01 mg/kg, proximal small intestine, day 14): significant increases in Paneth cell abundance
fraction of crypts with more Paneth cells than the vehicle 90th percentile cutoff (4 per crypt) (Paneth cells; 0.2 mg/kg, proximal small intestine): 15.5%
Paneth cell abundance per crypt (Paneth cells; 0.2 mg/kg, proximal small intestine, day 14): significant increases in Paneth cell abundance
PAS+ goblet cell population (Paneth cells; 0.01-0.2 mg/kg, proximal and distal SI, day 14): did not overserve any significant changes; also recorded: did not identify any significant changes
additional Paneth cells per crypt in vivo (Paneth cells; low dose KPT-330): 0.5-1 Paneth cells per crypt
Paneth cell-specific activity (LYZ secretion) in conventional ENR culture (ISC-enriched organoids): enhancing Paneth cell-specific activity
